{
  "source": "paper PMC5911580",
  "about": "“YL143, a novel mutant selective irreversible EGFR inhibitor, overcomes EGFR^L858R, T790M‐mutant resistance in vitro and in vivo” (Cancer Medicine, 2018)",
  "key": {"[1]": {"test_system": "HCC827 (EGFR^del 19) cells", "assay": "CCK-8 cell growth assay, HCC827", "format": "cell-based", "settings": "Homo sapiens, read-out: antiproliferative IC50 HCC827", "experimental": "(§1) Cells were seeded into 96‐well plates at a density of 1500~3000/well in complete medium overnight. Then, cells were treated with various concentrations (0.01~1000 nmol/L) of YL143 for additional 3 days. Viable cell numbers were determined by Cell Counting Kit 8 (CCK8, CK04, Dojindo Laboratories, Japan). Each assay consisted of three replicate wells and repeated at least three times. […] Each IC50 value was expressed as mean ± SD."}, "[2]": {"test_system": "A549 (EGFR^WT) cells", "assay": "CCK-8 cell growth assay, A549", "format": "cell-based", "settings": "Homo sapiens, read-out: antiproliferative IC50 A549", "experimental": "as §1"}, "[3]": {"molecular_target": "IR (Homo sapiens, UniProt P06213)", "sequence (P06213 28-1382)": "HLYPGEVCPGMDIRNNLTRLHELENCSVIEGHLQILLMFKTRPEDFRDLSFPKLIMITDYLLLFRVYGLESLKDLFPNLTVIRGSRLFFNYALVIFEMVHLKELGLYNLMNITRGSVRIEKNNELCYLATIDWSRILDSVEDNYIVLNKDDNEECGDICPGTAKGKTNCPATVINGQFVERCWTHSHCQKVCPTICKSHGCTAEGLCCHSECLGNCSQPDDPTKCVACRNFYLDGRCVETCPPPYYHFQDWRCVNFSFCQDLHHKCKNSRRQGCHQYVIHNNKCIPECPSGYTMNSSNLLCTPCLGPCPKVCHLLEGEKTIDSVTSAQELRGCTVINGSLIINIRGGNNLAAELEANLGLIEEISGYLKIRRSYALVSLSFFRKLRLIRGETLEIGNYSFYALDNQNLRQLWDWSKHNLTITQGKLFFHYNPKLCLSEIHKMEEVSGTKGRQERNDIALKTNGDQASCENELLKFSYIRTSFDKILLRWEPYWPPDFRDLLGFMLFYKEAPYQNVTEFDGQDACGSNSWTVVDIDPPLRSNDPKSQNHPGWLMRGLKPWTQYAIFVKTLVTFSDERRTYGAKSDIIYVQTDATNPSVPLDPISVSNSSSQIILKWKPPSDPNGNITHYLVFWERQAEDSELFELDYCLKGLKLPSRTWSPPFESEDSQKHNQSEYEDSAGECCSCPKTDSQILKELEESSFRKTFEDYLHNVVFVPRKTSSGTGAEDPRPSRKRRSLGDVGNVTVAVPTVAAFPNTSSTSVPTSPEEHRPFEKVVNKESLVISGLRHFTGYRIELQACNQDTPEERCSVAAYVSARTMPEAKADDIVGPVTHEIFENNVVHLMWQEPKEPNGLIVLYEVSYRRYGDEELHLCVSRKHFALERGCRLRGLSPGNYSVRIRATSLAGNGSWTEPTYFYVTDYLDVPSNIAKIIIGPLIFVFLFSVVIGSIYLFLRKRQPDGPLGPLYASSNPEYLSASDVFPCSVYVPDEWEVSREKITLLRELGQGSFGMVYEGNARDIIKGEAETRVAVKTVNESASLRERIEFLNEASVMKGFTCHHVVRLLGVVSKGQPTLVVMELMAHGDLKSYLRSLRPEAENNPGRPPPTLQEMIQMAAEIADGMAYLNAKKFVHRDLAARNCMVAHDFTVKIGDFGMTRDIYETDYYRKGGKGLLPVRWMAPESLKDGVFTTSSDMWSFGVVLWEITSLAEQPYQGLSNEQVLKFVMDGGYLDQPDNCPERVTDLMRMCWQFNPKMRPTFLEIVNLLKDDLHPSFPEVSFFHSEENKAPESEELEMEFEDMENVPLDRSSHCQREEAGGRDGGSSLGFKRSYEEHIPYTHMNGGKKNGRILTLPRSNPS", "assay": "FRET-based Z'-Lyte kinase assay, IR", "format": "biochemical", "settings": "AV ± SD; 1.5 h incubation", "experimental": "(§2) The kinase activity assay was performed and optimized according to the instructions of Z’‐LYTE™ kinase assay kits from the manufacturer (PV4879, Life, America). In our experiments, 10 concentration gradients from 0.01 nmol/L to 1.0 μmol/L were used for all the compounds."}, "[4]": {"molecular_target": "IGF1R (Homo sapiens, UniProt P08069)", "sequence (P08069 31-1367, species assumed)": "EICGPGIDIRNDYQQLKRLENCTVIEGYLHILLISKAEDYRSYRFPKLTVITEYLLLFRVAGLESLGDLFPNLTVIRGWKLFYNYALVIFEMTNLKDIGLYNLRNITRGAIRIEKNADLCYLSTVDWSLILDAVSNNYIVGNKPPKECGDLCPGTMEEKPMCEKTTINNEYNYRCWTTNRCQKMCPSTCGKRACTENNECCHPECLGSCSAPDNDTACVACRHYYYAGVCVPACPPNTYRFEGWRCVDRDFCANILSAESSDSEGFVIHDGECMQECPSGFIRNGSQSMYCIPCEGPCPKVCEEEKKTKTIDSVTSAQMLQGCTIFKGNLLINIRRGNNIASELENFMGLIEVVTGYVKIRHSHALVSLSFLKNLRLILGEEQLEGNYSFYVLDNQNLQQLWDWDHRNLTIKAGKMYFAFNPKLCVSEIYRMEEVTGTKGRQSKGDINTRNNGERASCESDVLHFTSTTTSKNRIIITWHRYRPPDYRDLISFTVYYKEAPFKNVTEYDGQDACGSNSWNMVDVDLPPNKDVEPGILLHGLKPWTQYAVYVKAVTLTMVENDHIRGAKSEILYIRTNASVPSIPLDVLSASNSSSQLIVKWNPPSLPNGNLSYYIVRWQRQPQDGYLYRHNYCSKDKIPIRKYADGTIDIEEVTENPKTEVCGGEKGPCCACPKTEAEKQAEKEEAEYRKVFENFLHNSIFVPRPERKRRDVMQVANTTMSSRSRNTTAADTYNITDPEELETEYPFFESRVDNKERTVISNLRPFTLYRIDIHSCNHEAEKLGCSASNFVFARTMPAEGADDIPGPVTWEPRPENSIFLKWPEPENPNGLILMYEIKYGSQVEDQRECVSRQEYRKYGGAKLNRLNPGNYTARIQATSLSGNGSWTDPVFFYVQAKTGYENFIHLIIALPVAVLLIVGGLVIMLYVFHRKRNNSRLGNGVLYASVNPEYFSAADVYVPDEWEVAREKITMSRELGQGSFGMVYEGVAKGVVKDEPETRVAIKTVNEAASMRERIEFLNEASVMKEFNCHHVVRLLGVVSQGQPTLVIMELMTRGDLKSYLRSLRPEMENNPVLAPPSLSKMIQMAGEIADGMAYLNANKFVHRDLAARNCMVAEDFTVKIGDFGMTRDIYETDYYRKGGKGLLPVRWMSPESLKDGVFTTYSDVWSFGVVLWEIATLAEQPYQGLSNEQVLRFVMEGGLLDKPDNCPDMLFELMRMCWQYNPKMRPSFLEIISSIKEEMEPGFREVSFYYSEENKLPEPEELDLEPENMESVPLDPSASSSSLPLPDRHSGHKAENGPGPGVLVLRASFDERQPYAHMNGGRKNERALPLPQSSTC", "assay": "FRET-based Z'-Lyte kinase assay, IGF1R", "format": "biochemical", "settings": "AV ± SD; 1.5 h incubation", "experimental": "as §2"}, "[5]": {"settings": "cited from earlier work; for median progression-free survival (PFS): patients with NSCLC with EGFR^L858R or EGFR^del19, improved from 4.6"}, "[6]": {"test_system": "A431 (EGFR^WT) cells", "assay": "CCK-8 cell growth assay, A431", "format": "cell-based", "settings": "Homo sapiens, read-out: antiproliferative IC50 A431", "experimental": "as §1"}, "[7]": {"test_system": "H1975 (EGFR^L858R/T790M) cells", "assay": "CCK-8 cell growth assay, H1975", "format": "cell-based", "settings": "Homo sapiens, read-out: antiproliferative IC50 H1975", "experimental": "as §1"}, "[8]": {"test_system": "BaF3-EGFR ^L858R", "assay": "CCK-8 assay, BaF3-EGFR L858R stable cells", "format": "cell-based", "settings": "Ba/F3 EGFR-L858R, read-out: anti-proliferative activity BaF3-EGFR L858R", "experimental": "as §1\n(§3) The anti-proliferative activities of the compounds were evaluated using CCK-8 assay. The data were means from at least four independent experiments."}, "[9]": {"test_system": "BaF3", "assay": "CCK-8 assay, BaF3 cells", "format": "cell-based", "settings": "Mus musculus, AV±SD, read-out: anti-proliferative activity BaF3", "experimental": "as §1, §3"}, "[10]": {"settings": "cited from earlier work"}},
  "note": "Read-outs that look alike come from different tables or passages of the source.",
  "data": [
    {"compound": "C=CC(=O)Nc1cc(Nc2nccc(-c3cn(C)c4ccccc34)n2)c(OC)cc1N(C)CCN(C)C", "note": "[AZD9291, Osimertinib]", "values": [
      {"measurement": "IC50", "setting": "[1]; HCC827, 72 h", "result": "3.9 ± 3.5", "unit": "nM"},
      {"measurement": "IC50", "setting": "[2]; A549, 72 h", "result": "> 1000", "unit": "nM"},
      {"measurement": "IC50", "setting": "[3]", "result": 235, "unit": "nM"},
      {"measurement": "IC50", "setting": "[4]", "result": 277, "unit": "nM"},
      {"measurement": "PFS (progression-free survival)", "setting": "[5]; improved from 10.2", "result": 18.9, "unit": "months"},
      {"measurement": "IC50", "setting": "[6]; A-431, 72 h", "result": "[…]"},
      {"measurement": "IC50", "setting": "[7]; NCI-H1975, 72 h", "result": "40.3 ± 16.6", "unit": "nM"},
      {"measurement": "IC50", "setting": "[8]", "result": "24 ± 25", "unit": "nM"},
      {"measurement": "IC50", "setting": "[9]", "result": "6170 ± 2980", "unit": "nM"}
    ]},
    {"compound": "COc1cc2ncnc(Nc3ccc(F)c(Cl)c3)c2cc1OCCCN1CCOCC1", "note": "[Gefitinib]", "values": [
      {"measurement": "median progression-free survival (PFS)", "setting": "[5]", "result": 13.1, "unit": "months"}
    ]},
    {"compound": "C=CC(=O)Nc1cccc(Nc2nc(Nc3ccc(N4CCN(C(C)=O)CC4)cc3OC)ncc2C(F)(F)F)c1", "note": "[CO1686, Rociletinib]", "values": [
      {"measurement": "hyperglycemia", "setting": "[10]; clinical investigation", "result": "about 40 % patients"},
      {"measurement": "hyperglycemia", "setting": "[10]; patients, clinical study", "result": 47, "unit": "%"},
      {"measurement": "IC50", "setting": "[1]; HCC827, CCK-8, 72 h, AV ± SD", "result": "67.2 ± 19.5", "unit": "nM"},
      {"measurement": "IC50", "setting": "[2]; A549, CCK-8, 72 h", "result": "> 1000", "unit": "nM"},
      {"measurement": "IC50", "setting": "[3]", "result": "12.8 ± 0.8", "unit": "nM"},
      {"measurement": "IC50", "setting": "[4]", "result": "47.5 ± 8.4", "unit": "nM"},
      {"measurement": "IC50", "setting": "[6]; A-431, CCK-8, 72 h", "result": "> 1000", "unit": "nM"},
      {"measurement": "IC50", "setting": "[7]; NCI-H1975, CCK-8, 72 h, AV ± SD", "result": "41.8 ± 25.1", "unit": "nM"},
      {"measurement": "IC50", "setting": "[8]; CCK-8, AV±SD", "result": "69 ± 48", "unit": "nM"},
      {"measurement": "IC50", "setting": "[9]", "result": "2340 ± 1660", "unit": "nM"}
    ]},
    {"compound": "C#Cc1cccc(Nc2ncnc3cc(OCCOC)c(OCCOC)cc23)c1", "note": "[erlotinib]", "values": [
      {"measurement": "median progression-free survival (PFS)", "setting": "[5]", "result": 13.1, "unit": "months"}
    ]}
  ]
}
